Experimental data from patent US10047050B2, “3,4-di-substituted pyridine compound, methods of using and compositions comprising the same” (ARDEA BIOSCIENCES, INC., priority 2011, dated 2018).
Several values for one entry are separate records, joined by “and”; a condition that tells them apart may be missing. Identical values can stand only once.

Tested on: serum uric acid
Test: Single-dose Phase I clinical trial, serum uric acid (sUA) 0-72 hours post-dose
Format: in vivo, human
Settings: for % sUA change (from baseline) / % sUA reduction (from baseline): individual subjects 3-8; for % sUA change (from baseline), Mean (3-8) / Absolute sUA concentration, Mean (3-8) / % sUA reduction (from baseline), Mean (3-8): mean of subjects 3-8
Procedure: A Phase 1, Randomized, Double-Blind, Placebo-Controlled Study to Evaluate Safety, Tolerability, Pharmacokinetics and Preliminary Food Effect of Single Doses of a URAT1 Inhibitor, in Healthy Adult Male Volunteers.
To assess safety, tolerability, pharmacokinetics and uricosuric effects after oral administration as single doses of a tablet formulation and the effect of food on bioavailability.
Subjects receive a single, oral dose of active or placebo, at the following doses:
Group 4: 20 mg (fasted) [sentinel dosing];
48 subjects in 6 dose groups, 8 subjects/group, are randomized 3:1 to receive active (6/group) or placebo (2/group). All study procedures are the same regardless of whether subject receives active or placebo. The total duration of subject participation, including screening period, is ˜2-4 weeks, and the total volume of blood collected from each subject during the entire study <500 mL, (less than typically collected during a volunteer blood donation).
5 mg and 20 mg, active and placebo, tablets packaged in 35 count HDPE bottles, stored at controlled room temperature (15-30° C.). Placebo tablets are designed to match the active tablets—identical size, form, taste, and color, and containing the same excipients. 2 mg was dosed as an oral solution.
Subjects dosed on the morning of Day 1 with ˜240 mL of room temp water.
Fasted: subjects are dosed after overnight fast >10 hours and remain fasted until >4 hours post-dose.
Fed: subjects fast overnight for >10 hours, then are dosed 30 mins after completing standard moderate fat breakfast (no high fructose corn syrup).
Serum samples are collected at:
PD samples are frozen (−20° C.) and stored; all samples from a given subject assayed in a single analytical run.

[1] = Group 1, 2 mg single oral dose, fasted, 0 h (baseline)
[2] = Group 1, 2 mg single oral dose, fasted, 6 h post-dose
[3] = Group 1, 2 mg single oral dose, fasted, 12 h post-dose
[4] = Group 1, 2 mg single oral dose, fasted, 24 h post-dose
[5] = Group 1, 2 mg single oral dose, fasted, 30 h post-dose
[6] = Group 1, 2 mg single oral dose, fasted, 36 h post-dose
[7] = Group 1, 2 mg single oral dose, fasted, 48 h post-dose
[8] = Group 1, 2 mg single oral dose, fasted, 54 h post-dose
[9] = Group 1, 2 mg single oral dose, fasted, 60 h post-dose
[10] = Group 1, 2 mg single oral dose, fasted, 72 h post-dose
[11] = Group 2, 5 mg single oral dose, fasted, 0 h (baseline)
[12] = Group 2, 5 mg single oral dose, fasted, 6 h post-dose
[13] = Group 2, 5 mg single oral dose, fasted, 12 h post-dose
[14] = Group 2, 5 mg single oral dose, fasted, 24 h post-dose
[15] = Group 2, 5 mg single oral dose, fasted, 30 h post-dose
[16] = Group 2, 5 mg single oral dose, fasted, 36 h post-dose
[17] = Group 2, 5 mg single oral dose, fasted, 48 h post-dose
[18] = Group 2, 5 mg single oral dose, fasted, 54 h post-dose
[19] = Group 2, 5 mg single oral dose, fasted, 60 h post-dose
[20] = Group 2, 5 mg single oral dose, fasted, 72 h post-dose
[21] = Group 3, 5 mg single oral dose, fed, 0 h (baseline)
[22] = Group 3, 5 mg single oral dose, fed, 6 h post-dose
[23] = Group 3, 5 mg single oral dose, fed, 12 h post-dose
[24] = Group 3, 5 mg single oral dose, fed, 24 h post-dose
[25] = Group 3, 5 mg single oral dose, fed, 30 h post-dose
[26] = Group 3, 5 mg single oral dose, fed, 36 h post-dose
[27] = Group 3, 5 mg single oral dose, fed, 48 h post-dose

`CC(C)(Sc1ccncc1-c1ccc(C#N)c2ccccc12)C(=O)O` [2-((3-(4-cyanonaphthalen-1-yl)pyridin-4-yl)thio)-2-methylpropanoic acid] was tested, and the “% sUA change (from baseline)” value [1] was 0%, the “% sUA change (from baseline), Mean (3-8)” value [1] was 0% and the “Absolute sUA concentration, Mean (3-8)” value [1] was 6.5 mg/dL. The “% sUA change (from baseline)” value [2] was −30.4% and −47.5% and −35.5% and −37.8% and −38.2% and −33.3%, the “% sUA change (from baseline), Mean (3-8)” value [2] was −10.2% and the “Absolute sUA concentration, Mean (3-8)” value [2] was 5.8 mg/dL. The “% sUA change (from baseline)” value [3] was −44.6% (2×) and −52.5% and −48.4% and −43.4% and −42.3%, the “% sUA change (from baseline), Mean (3-8)” value [3] was −15.6% and the “Absolute sUA concentration, Mean (3-8)” value [3] was 5.5 mg/dL. The “% sUA change (from baseline)” value [4] was −41.1% and −44.1% and −43.5% and −40.5% and −43.4% and −46.2%, the “% sUA change (from baseline), Mean (3-8)” value [4] was −8.1% and the “Absolute sUA concentration, Mean (3-8)” value [4] was 6.0 mg/dL. The “% sUA change (from baseline)” value [5] was −46.4% and −52.5% and −43.5% and −44.6% and −44.7% and −52.6%, the “% sUA change (from baseline), Mean (3-8)” value [5] was −13.5% and the “Absolute sUA concentration, Mean (3-8)” value [5] was 5.6 mg/dL. The “% sUA change (from baseline)” value [6] was −48.2% and −52.5% and −45.2% and −45.9% and −46.1% and −52.6%, the “% sUA change (from baseline), Mean (3-8)” value [6] was −18.8% and the “Absolute sUA concentration, Mean (3-8)” value [6] was 5.3 mg/dL. For the same molecule, the “% sUA change (from baseline)” value [7] was −32.1% and −42.4% and −38.7% and −36.5% and −35.5% and −48.7%, the “% sUA change (from baseline), Mean (3-8)” value [7] was −13.3% and the “Absolute sUA concentration, Mean (3-8)” value [7] was 5.6 mg/dL. The “% sUA change (from baseline)” value [8] was −33.9% and −45.8% and −37.1% and −27% and −32.9% and −48.7%, the “% sUA change (from baseline), Mean (3-8)” value [8] was −19.3% and the “Absolute sUA concentration, Mean (3-8)” value [8] was 5.3 mg/dL. The “% sUA change (from baseline)” value [9] was −35.7% and −45.8% and −35.5% and −29.7% and −32.9% and −46.2%, the “% sUA change (from baseline), Mean (3-8)” value [9] was −21.3% and the “Absolute sUA concentration, Mean (3-8)” value [9] was 5.1 mg/dL. The “% sUA change (from baseline)” value [10] was −23.2% and −30.5% and −16.1% and −14.9% and −15.8% and −28.2%, the “% sUA change (from baseline), Mean (3-8)” value [10] was −15.5% and the “Absolute sUA concentration, Mean (3-8)” value [10] was 5.5 mg/dL. For the same molecule, the “% sUA reduction (from baseline)” value [11] was 0%, the “% sUA reduction (from baseline), Mean (3-8)” value (“% sUA reduction … (3-8)” below) [11] was 0% and the “Absolute sUA concentration, Mean (3-8)” value [11] was 6.5 mg/dL. The “% sUA reduction (from baseline)” value [12] was −24.3% and −13.9% and −14.3% and −13.1% and −27.9% and −22.0%, the “% sUA reduction … (3-8)” value [12] was −19.3% and the “Absolute sUA concentration, Mean (3-8)” value [12] was 5.3 mg/dL. The “% sUA reduction (from baseline)” value [13] was −36.5% and −16.7% and −19.0% and −13.1% and −37.7% and −32.2%, the “% sUA reduction … (3-8)” value [13] was −25.9% and the “Absolute sUA concentration, Mean (3-8)” value [13] was 4.8 mg/dL. For the same molecule, the “% sUA reduction (from baseline)” value [14] was −25.7% and −11.1% (2×) and 0.0% and −26.2% and −16.9%, the “% sUA reduction … (3-8)” value [14] was −15.2% and the “Absolute sUA concentration, Mean (3-8)” value [14] was 5.5 mg/dL. The “% sUA reduction (from baseline)” value [15] was −29.7% and −16.7% and −17.5% and −8.2% and −36.1% and −28.8%, the “% sUA reduction … (3-8)” value [15] was −22.8% and the “Absolute sUA concentration, Mean (3-8)” value [15] was 5.0 mg/dL. For the same molecule, the “% sUA reduction (from baseline)” value [16] was −32.4% and −23.6% and −14.3% and −14.8% and −41.0% and −32.2%, the “% sUA reduction … (3-8)” value [16] was −26.4% and the “Absolute sUA concentration, Mean (3-8)” value [16] was 4.8 mg/dL. For the same molecule, the “% sUA reduction (from baseline)” value [17] was −27.0% and −11.1% and −9.5% and −11.5% and −31.1% and −20.3%, the “% sUA reduction … (3-8)” value [17] was −18.4% and the “Absolute sUA concentration, Mean (3-8)” value [17] was 5.3 mg/dL. The “% sUA reduction (from baseline)” value [18] was −31.1% and −18.1% and −15.9% and −16.4% and −32.8% and −28.8%, the “% sUA reduction … (3-8)” value [18] was −23.9% and the “Absolute sUA concentration, Mean (3-8)” value [18] was 5.0 mg/dL. For the same molecule, the “% sUA reduction (from baseline)” value [19] was −28.4% and −22.2% and −20.6% and −21.3% and −32.8% and −28.8%, the “% sUA reduction … (3-8)” value [19] was −25.7% and the “Absolute sUA concentration, Mean (3-8)” value [19] was 4.8 mg/dL. The “% sUA reduction (from baseline)” value [20] was −21.6% and −15.3% and −12.7% and −13.1% and −26.2% and −23.7%, the “% sUA reduction … (3-8)” value [20] was −18.8% and the “Absolute sUA concentration, Mean (3-8)” value [20] was 5.3 mg/dL. For the same molecule, the “% sUA reduction (from baseline)” value [21] was 0%, the “% sUA reduction … (3-8)” value [21] was 0% and the “Absolute sUA concentration, Mean (3-8)” value [21] was 6.0 mg/dL. For the same molecule, the “% sUA reduction (from baseline)” value [22] was −36.2% and −31.8% and −25.0% and −22.8% and −30.0%, the “% sUA reduction … (3-8)” value [22] was −29.2% and the “Absolute sUA concentration, Mean (3-8)” value [22] was 4.1 mg/dL. For the same molecule, the “% sUA reduction (from baseline)” value [23] was −40.6% and −37.9% and −29.2% and −25.0% and −22.8%, the “% sUA reduction … (3-8)” value [23] was −32.2% and the “Absolute sUA concentration, Mean (3-8)” value [23] was 4.0 mg/dL. For the same molecule, the “% sUA reduction … (3-8)” value [24] was −17.2%, the “Absolute sUA concentration, Mean (3-8)” value [24] was 4.9 mg/dL and the “% sUA reduction … (3-8)” value [25] was −25.6%. The “Absolute sUA concentration, Mean (3-8)” value [25] was 4.4 mg/dL, the “% sUA reduction … (3-8)” value [26] was −29.1% and the “Absolute sUA concentration, Mean (3-8)” value [26] was 4.2 mg/dL. For the same molecule, the “% sUA reduction (from baseline)” value [27] was −31.9% and −30.3% and −23.1% and −23.3% and −14.0% and −27.5% and the “% sUA reduction … (3-8)” value [27] was −25.0%.
